The values that follow come from paper PMC4404333, “Identification of Selective Inhibitors of the Plasmodium falciparum Hexose Transporter PfHT by Screening Focused Libraries of Anti-Malarial Compounds” (PLoS ONE, 2015).

Where “and” joins values, the source holds several entries; their conditions need not be identical. Equal values may be shown once. Read-outs that look alike come from different tables or passages of the source. Bounds are passed on as bounds.

By EC50 is commonly meant the concentration that produces a half-maximal response. By IC50 is commonly meant the concentration that inhibits the measured activity by half.

The nature of series [1]: Parallel artificial membrane permeability assay (PAMPA). The note with it: for Permeation: pH 7.4; for Retention: retention in artificial membrane. As to the method: A parallel artificial membrane permeability assay (PAMPA) was conducted on a Biomek FX lab automation workstation (Beckman Coulter, Inc.) with PAMPA evolution 96 command software (pION Inc.) as follows: 3 μL of 10 mM test compound stock was mixed with 600 μL of PBS (pH 7.4) to make diluted test compound. Then 150 μL of diluted test compound was transferred to a UV plate (pION Inc.), and the UV spectrum was read as the reference plate. The membrane on a preloaded PAMPA sandwich (pION Inc.) was painted with 4 μL of GIT lipid (pION Inc.). The acceptor chamber was then filled with 200 μL of acceptor solution buffer (pION Inc.), and the donor chamber was filled with 180 μL of diluted test compound. The PAMPA sandwich was assembled, placed on the Gut-Box controlled environment chamber and stirred for 30 min. The aqueous boundary layer was set to 40 μm for stirring. The UV spectrum (250–500 nm) of the donor and the acceptor were read. The permeability coefficient was calculated using PAMPA Evolution 96 Command software (pION Inc.) based on the AUC of the reference plate, the donor plate, and the acceptor plate. All compounds were tested in triplicate.
Background: In PAMPA a lipid-coated filter parts donor from acceptor wells.

A further series concerns P. falciparum strain K1. The series can be described thus: Proliferation of intraerythrocytic P. falciparum K1 (SYBR Green, 72 h). In kind it is cell-based, Plasmodium falciparum. Conditions: multi-drug resistant strain K1, 72 h, read-out: Pf K1 EC50. As to the method: Two P. falciparum strains were used in this study and were provided by the MR4 Unit of the American Type Culture Collection (ATCC, Manassas, VA). Those two strains were the chloroquine sensitive strain 3D7 and the K1 strain that is resistant to chloroquine, pyrimethamine, and sulfadoxine.
Asynchronous parasites were maintained in culture based on the method of Trager. Parasites were grown in presence of fresh group O-positive erythrocytes (Key Biologics, LLC) in Petri dishes at a hematocrit of 4–6% in RPMI based media (RPMI 1640 supplemented with 0.5% AlbuMAX II, 25 mM HEPES, 25 mM NaHCO3 (pH 7.3), 100 μg/mL hypoxanthine, and 5 μg/mL gentamycin). Cultures were incubated at 37°C in a gas mixture of 90% N2, 5% O2, 5% CO2. For EC50 determinations, 20 μL of RPMI 1640 with 5 μg/mL gentamycin were dispensed per well in an assay plate (Corning 384-well microtiter plate, clear bottom, tissue culture treated, catalog no. 8807BC). 40 nL of compound, previously serially diluted in a separate 384-well white polypropylene plate (Corning, catalog no. 8748BC), was dispensed to the assay plate by hydrodynamic pin transfer (FP1S50H, V&P Scientific Pin Head) and then 20 μL of a synchronized culture suspension (1% rings, 4% hematocrit) was added to each well, thus making a final hematocrit and parasitemia of 2% and 1%, respectively. Assay plates were incubated for 72 h, and the parasitemia was determined by a method previously described: Briefly, 10 μL of the assay solution in PBS (10X SYBR Green I, 0.5% v/v triton X-100, 0.5 mg/mL saponin) was added to each well. Assay plates were shaken for 1 min, incubated in the dark for 90 min, and read with an Envision (Perkin Elmer) spectrophotometer at Ex/Em of 485 nm/535 nm. EC50s were calculated with a custom program (RISE, Robust Investigation of Screening Experiments) using a four-parameter logistic equation.

For the next series, the target named is T1, human GLUT1 (Homo sapiens, UniProt P11166).
T1 sequence (P11166 1-492): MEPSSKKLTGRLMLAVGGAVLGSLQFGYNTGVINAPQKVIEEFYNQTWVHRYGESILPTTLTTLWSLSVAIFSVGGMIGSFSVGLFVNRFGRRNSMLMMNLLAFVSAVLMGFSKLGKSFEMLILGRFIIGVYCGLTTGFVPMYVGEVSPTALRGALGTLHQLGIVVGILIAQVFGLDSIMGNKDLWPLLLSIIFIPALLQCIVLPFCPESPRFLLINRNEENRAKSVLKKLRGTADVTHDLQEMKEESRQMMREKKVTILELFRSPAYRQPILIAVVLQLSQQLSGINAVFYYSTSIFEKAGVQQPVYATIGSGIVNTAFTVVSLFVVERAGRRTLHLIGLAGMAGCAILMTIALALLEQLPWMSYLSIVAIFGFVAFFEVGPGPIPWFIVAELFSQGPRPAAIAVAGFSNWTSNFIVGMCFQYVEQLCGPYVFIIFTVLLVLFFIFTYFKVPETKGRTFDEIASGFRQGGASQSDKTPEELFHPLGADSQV
The series can be described thus: Uptake of [3H] D-glucose by L. mexicana Δlmxgt1-3 null mutants expressing GLUT1. In kind it is cell-based. Conditions: inhibition of uptake of 100 μM [3H] D-glucose, 1 min uptake assay. Also on record: expressed in transfected cells; host or cells: Leishmania mexicana promastigotes, Δlmxgt1-3 hexose transporter null mutant. Here is the method:
Glucose uptake assays employed logarithmic phase L. mexicana promastigotes of the Δlmxgt1-3 hexose transporter null mutant strain expressing either PfHT or GLUT1 from an episomal expression vector [17]. Parasites (1x10^7) were resuspended in 100 μL phosphate buffered saline, pH 7.4. Prior to uptake, parasites were pre-incubated for 5 min with inhibitor, and uptake was initiated by adding 100 μL of 200 μM [^3H] D-glucose diluted to 4.0 μCi/mL. Uptake was terminated, typically after 1 min, by centrifuging the parasites through a layer of dibutyl phthalate, as described. Control uptake assays employing [^3H] hypoxanthine, [^3H] uridine, and [^3H] L-proline were performed similarly. Analysis of kinetic data was performed using Graph Pad Prism 4.0b software (Graph Pad).

Setting [2] is: Plasmodium falciparum, K1, 72 h.

Consider `CC1CCCCN1S(=O)(=O)c1ccc2nc(Nc3cccc(C#N)c3)ccc2c1` (centres unmarked) [Compound 13], for which, in series [1], the Permeation is 582 ± 205 10^-6 cm/s and the Retention worked out at 93 ± 0.5%. Moreover, the EC50 with P. falciparum strain K1 (setting [2]) is over 10 µM. Also, the EC50 in the series on P. falciparum strain K1 stood at 7.3 µM. This compound also showed an IC50 on human GLUT1 of 30 µM.

As for `CC1CCCCN1S(=O)(=O)c1ccc2nc(Nc3ccccc3)ccc2c1` (centres unmarked) [Compound 10], in series [1], the Permeation is given as 534 ± 25 10^-6 cm/s and the Retention turned out to be 80 ± 12%. Besides, the EC50 with P. falciparum strain K1 (setting [2]) was over 10 µM. The concentration for a half-maximal effect (EC50) in the series with P. falciparum strain K1 came out at 12 µM. This compound yielded an IC50 against human GLUT1 of over 10 µM.

Regarding `COc1cc(Nc2ccc3cc(S(=O)(=O)N4CCCCC4C)ccc3n2)cc(OC)c1OC` (centres unmarked) [Compound 1], in series [1], the Permeation is listed as 1057 ± 69 10^-6 cm/s and the Retention was 70 ± 2.0%. Also, the 50% effective concentration (EC50) with P. falciparum strain K1 (setting [2]) was about 1 µM. Also, the EC50 in the series with P. falciparum strain K1 stood at 0.97 µM. For the same compound, the IC50 against human GLUT1 is 3.2 µM and > 3 µM.

On to `CC1CCCCN1S(=O)(=O)c1ccc2nc(Nc3ccc(C#N)cc3)ccc2c1` (centres unmarked) [Compound 12], for which, in series [1], the Permeation is given as 570 ND 10^-6 cm/s and the Retention is on record as 93 ± 3.8%. Moreover, the EC50 with P. falciparum strain K1 (setting [2]) is over 10 µM. In the series with P. falciparum strain K1, the EC50 was over 16 µM. The same compound gave an IC50 on human GLUT1 of 2.5 µM.
